Reference: ChEMBL document CHEMBL1201862, “PubChem BioAssay data set” (2004)
Active and inactive are the calls of the source.

Tests used:
[1] = target: T1, Polyadenylate-binding protein 1 (Homo sapiens, UniProt P11940); experiment: PABP1 MLLE–PAM2 binding inhibitor potency, dose response, biochemical, fluorescence polarization, FITC-PAM2 peptide (AID 602259); assay type: functional; details: read-out: IC50_Mean
[2] = target: T1, Polyadenylate-binding protein 1; experiment: PABP1 MLLE–PAM2 interaction inhibitors, dose response, miRNA deadenylation inhibitor project, biochemical, fluorescence polarization, Cy5-PAM2 peptide, secondary (AID 602260); assay type: functional; details: read-out: IC50_Mean
[3] = target: T2, High affinity choline transporter 1 (Homo sapiens, UniProt Q9GZV3); experiment: CHT inhibitors, dose response, cell-based, 5-point CRC, membrane potential dye (AID 504840); assay type: functional
T2 sequence (Q9GZV3 whole entry): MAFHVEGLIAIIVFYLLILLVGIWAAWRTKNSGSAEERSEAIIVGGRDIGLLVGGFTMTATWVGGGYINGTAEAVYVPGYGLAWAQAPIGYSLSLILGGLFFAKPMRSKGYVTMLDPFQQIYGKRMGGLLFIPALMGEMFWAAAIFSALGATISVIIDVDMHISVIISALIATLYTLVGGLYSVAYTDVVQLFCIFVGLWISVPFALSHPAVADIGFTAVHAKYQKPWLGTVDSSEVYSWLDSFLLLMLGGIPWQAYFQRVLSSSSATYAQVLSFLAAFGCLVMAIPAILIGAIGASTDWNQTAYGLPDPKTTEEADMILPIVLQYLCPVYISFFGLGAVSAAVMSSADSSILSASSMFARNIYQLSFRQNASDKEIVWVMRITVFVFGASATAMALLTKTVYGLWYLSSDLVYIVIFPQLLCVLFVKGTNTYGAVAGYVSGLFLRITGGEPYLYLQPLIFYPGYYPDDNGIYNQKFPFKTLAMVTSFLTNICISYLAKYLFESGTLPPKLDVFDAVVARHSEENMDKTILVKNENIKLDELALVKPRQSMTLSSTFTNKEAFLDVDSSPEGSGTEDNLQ

[4] = target: Induced myeloid leukemia cell differentiation protein Mcl-1 (Homo sapiens, UniProt Q07820); assay type: functional
Chain of Induced myeloid leukemia cell differentiation protein Mcl-1 (Q07820 whole entry, the tested form may be a part): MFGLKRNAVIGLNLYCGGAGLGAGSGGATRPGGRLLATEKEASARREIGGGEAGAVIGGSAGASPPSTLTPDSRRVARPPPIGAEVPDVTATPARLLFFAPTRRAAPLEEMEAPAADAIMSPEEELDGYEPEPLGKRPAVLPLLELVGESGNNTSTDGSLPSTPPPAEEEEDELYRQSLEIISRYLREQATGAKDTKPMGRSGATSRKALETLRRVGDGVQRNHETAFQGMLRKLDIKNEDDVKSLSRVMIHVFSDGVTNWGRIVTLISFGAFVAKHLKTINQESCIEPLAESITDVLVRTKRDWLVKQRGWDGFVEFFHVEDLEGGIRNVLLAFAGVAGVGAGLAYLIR

[5] = inhibitors of HIV Env-driven cell fusion, dose response, cherry-pick (AID 652057); assay type: functional, cell-based
[6] = inhibitors of clade B AD8 Env fusion, dose response, cell-based, cherry-pick (AID 652062); assay type: functional;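 further: luciferase signal from cell-cell fusion driven by HIV-1 clade B AD8 Env; potency is for inhibitors of fusion seen as a drop in luminescence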
[7] = ZM109 Env clade C HIV-1 fusion inhibitors, dose response, HeLa effector, CEM target cells, luciferase, cherry-pick (AID 652058); assay type: functional, cell-based
[8] = off-target signal loss in HeLa-CEM21 co-culture – HeLa F-luc CTL cells, cherry-picked, counter-screen for HIV-1 Env fusion inhibitor project, dose response (AID 652040); assay type: functional, cell-based;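 further: potency for signal decrease marking cytotoxic or nonspecific inhibition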
[9] = target: T3, Carboxy-terminal domain RNA polymerase II polypeptide A small phosphatase 1 (Homo sapiens, UniProt Q9GZU7); experiment: inhibitors of CTDSP1, concentration-response testing, biochemical assay, absorbance-based, actives from ultra-high-throughput screening (AID 540297); assay type: functional
T3 sequence (Q9GZU7 whole entry): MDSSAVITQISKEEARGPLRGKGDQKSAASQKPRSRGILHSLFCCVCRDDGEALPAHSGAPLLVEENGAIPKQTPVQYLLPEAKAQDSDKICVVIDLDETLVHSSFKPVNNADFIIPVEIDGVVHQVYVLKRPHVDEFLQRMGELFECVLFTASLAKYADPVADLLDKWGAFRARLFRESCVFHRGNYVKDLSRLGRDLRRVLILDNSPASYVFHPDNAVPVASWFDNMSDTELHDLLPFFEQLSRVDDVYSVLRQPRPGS

[10] = tested on: P388/ADR; experiment: cells; assay type: functional; details: Mus musculus
[11] = tested on: SN12K1; experiment: cells; assay type: functional; details: Homo sapiens
[12] = tested on: P388; experiment: cells; assay type: functional; details: Mus musculus

T1 sequence (P11940 whole entry): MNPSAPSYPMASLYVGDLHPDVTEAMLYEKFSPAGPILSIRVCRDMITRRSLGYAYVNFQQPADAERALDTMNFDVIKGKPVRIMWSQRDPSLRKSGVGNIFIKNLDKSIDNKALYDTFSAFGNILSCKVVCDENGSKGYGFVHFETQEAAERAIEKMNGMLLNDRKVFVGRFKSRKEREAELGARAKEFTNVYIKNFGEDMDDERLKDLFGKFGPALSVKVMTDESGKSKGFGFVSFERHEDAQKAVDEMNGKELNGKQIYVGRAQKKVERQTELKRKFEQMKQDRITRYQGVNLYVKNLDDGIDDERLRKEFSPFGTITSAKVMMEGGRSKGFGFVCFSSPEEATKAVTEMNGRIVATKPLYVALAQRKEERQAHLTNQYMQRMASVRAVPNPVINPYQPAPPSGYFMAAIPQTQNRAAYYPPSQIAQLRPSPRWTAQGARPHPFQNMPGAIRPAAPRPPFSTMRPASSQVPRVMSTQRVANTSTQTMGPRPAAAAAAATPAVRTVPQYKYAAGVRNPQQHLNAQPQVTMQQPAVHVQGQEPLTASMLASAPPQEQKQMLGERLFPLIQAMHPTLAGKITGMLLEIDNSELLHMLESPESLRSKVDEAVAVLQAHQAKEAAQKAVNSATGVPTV

In the case of `CCOCC(=O)Nc1nnc(COc2ccc(Cl)cc2)s1`, the IC50 [1] is reported as > 66 µM (inactive) and the IC50 [2] is reported as > 66 µM (inactive).
In the case of `CCCn1c(N)c(C(=S)NC(=O)C2CC2)c(=O)n(C)c1=O`, the IC50 [1] is reported as > 66 µM (inactive) and the IC50 [2] is reported as > 66 µM (inactive).
For `Cc1ccc(-c2cc(C(=O)NCCCn3ccnc3)c3cc(Br)ccc3n2)o1`, the IC50 [3] was 11.5 µM (active) and the IC50 [4] was 3.07 µM (not active).
In the case of `CCOP(=O)(Cc1cc(C(C)=O)c(C)o1)OCC`, the IC50 [1] is reported as > 66 µM (inactive) and the IC50 [2] is reported as > 66 µM (inactive).
For `CCCCNC(=O)c1sc(=S)n(-c2ccccc2OC)c1N`, the IC50 [1] was > 66 µM (inactive) and the IC50 [2] was > 66 µM (inactive).
For `Cn1c(O)nc2cc3ccccc3cc21`, the AC50 [5] was 1.46 µM (active), the AC50 [6] was 4.99 µM (active) and the AC50 [7] was 53.3 µM (active). The AC50 [8] was 0.717 µM (active).
In the case of `N#C/C(=C/c1ccc(-c2ccc(C(=O)O)c(Cl)c2)o1)C(=O)NCC1CCCO1` (stereo not given), the IC50 [9] is reported as 33.2 µM (active).
For `O=C(CCN1C(=O)/C(=C/c2ccc(F)cc2)SC1=S)Nc1cc([N+](=O)[O-])ccc1O`, the IC50 [9] was 7.68 µM (active).
With `COc1ccc(C(=O)CCN2CCC(C)CC2)cc1` the IC50 [1] was > 66 µM (inactive) and the IC50 [2] was > 66 µM (inactive).
With `CC(=O)c1cccc(NC(=O)COc2cc3oc(=O)c(CC(C)O)c(C)c3cc2Cl)c1` (stereo not given) the IC50 [9] was 12.5 µM (active).
In the case of `CCN1C(=O)[C@H]2[C@H]3CN=C(SCc4ccc(Cl)cc4)N3[C@@](CC)(C(=O)OC)[C@H]2C1=O`, the AC50 [5] is reported as 3.34 µM (active), the AC50 [6] is reported as 5.43 µM (active) and the AC50 [7] is reported as 3.37 µM (active). For the same molecule, the AC50 [8] was 3.59 µM (active).
In the case of `CCn1c(C)cc(C)[n+]1-c1ccccc1`, the IC50 [9] is reported as 13.2 µM (active).
In the case of `CCCNC(=O)C(C)C1CCC2(C)C=CC(=O)C(C)=C2C1O` (stereo not given), the GI50 [10] is reported as > 100 µM (inactive), the GI50 [11] is reported as > 100 µM (inactive) and the GI50 [12] is reported as > 100 µM (inactive).
With `C[C@H]1COC(c2ccccn2)=N1` the GI50 [10] was > 100 µM (inactive), the GI50 [11] was > 100 µM (inactive) and the GI50 [12] was > 100 µM (inactive).
In the case of `CC12CCC3C(CCC4=CC(O)CCC43C=O)C1(O)CCC2c1ccc(=O)oc1` (stereo not given), the GI50 [10] is reported as 0.21 µM (active), the GI50 [11] is reported as 0.05 µM (active) and the GI50 [12] is reported as < 0.1 µM (active).
For `CC1(C)N=C(N)N=C(N)N1c1ccc(CCCCc2ccc(S(=O)(=O)F)cc2Cl)c(Cl)c1`, the GI50 [10] was 0.369 µM (active), the GI50 [11] was 0.979 µM (active) and the GI50 [12] was 0.05 µM (active).
With `CCNCCCCNCC` the GI50 [10] was > 3750 µM (inactive), the GI50 [11] was > 3750 µM (inactive) and the GI50 [12] was 1560 µM (inactive).
In the case of `COc1ccc2nc3c(C(=O)NCCN(C)C)cccc3cc2c1`, the GI50 [10] is reported as 0.652 µM (active), the GI50 [11] is reported as 0.944 µM (active) and the GI50 [12] is reported as 0.305 µM (active).
For `NC(Cc1cc(I)c(O)c(I)c1)C(=O)O` (stereo not given), the GI50 [10] was 21.3 µM (inactive), the GI50 [11] was 169 µM (inactive) and the GI50 [12] was 21.6 µM (inactive).
For `NC(=O)c1[nH]nc(C2OC(CO)C(O)C2O)c1O` (stereo not given), the GI50 [10] was 0.5 µM (active), the GI50 [11] was 0.561 µM (active) and the GI50 [12] was 0.5 µM (active).
In the case of `[N-]=[N+]=CC(=O)CCC(NC(=O)C(CCC(=O)C=[N+]=[N-])NC(=O)CCC(N)C(=O)O)C(=O)O` (stereo not given), the GI50 [10] is reported as > 100 µM (inactive), the GI50 [11] is reported as > 100 µM (inactive) and the GI50 [12] is reported as > 100 µM (inactive).
In the case of `CC[C@@]1(C(=O)OC)N[C@H](CN(C)C(=O)Nc2ccc(C(F)(F)F)cc2)[C@@H]2C(=O)N(Cc3ccccc3)C(=O)[C@@H]21`, the AC50 [5] is reported as 0.336 µM (active), the AC50 [6] is reported as 1.21 µM (active) and the AC50 [7] is reported as 0.604 µM (active). For the same molecule, the AC50 [8] was 0.74 µM (active).
For `C[C@H]1CN([C@@H](C)CO)C(=O)Cc2cc(NC(=O)Nc3ccccc3)ccc2O[C@H]1CN(C)S(=O)(=O)c1ccccc1`, the AC50 [5] was 5.16 µM (active), the AC50 [6] was 5.2 µM (active) and the AC50 [7] was 4.49 µM (active).
In the case of `CCCCC1NC(C(=O)O)CS1` (stereo not given), the IC50 [1] is reported as > 66 µM (inactive) and the IC50 [2] is reported as > 66 µM (inactive).
